What was measured:
LiTryR = target: T1, LiTryR (Leishmania infantum, UniProt A4HSF7); assay: biochemical; assay type: biochemical; settings: LiTryR; 1 μM TS2; maximum assayed 75 μM; read-out: IC50^act, TryR oxidoreductase activity
T1 construct: HIS (N); made in house; host or cells: E. coli BL21 (DE3) Rossetta
Procedure: A concentration of 1 μM TS2 was used for this initial screening. This low substrate concentration is sufficient for comparison of compound inhibitory activity in the oxidoreductase assay.
Recombinant L. infantum TryR (LiTryR) HIS-tagged and HIS-FLAG-tagged versions were used for all LiTryR oxidoreductase activity and dimer quantitation assays. These LiTryR versions were purified from Escherichia coli as previously described.[25] Briefly, pRSETA-HIS-LiTryR construct alone or in combination with the pET24a-FLAG-LiTryR construct was transformed into BL21 (DE3) Rossetta E. coli strain. An overnight E. coli culture grown at 37 °C in Luria–Bertani (LB) medium with the appropriate antibiotics and vigorous shaking was diluted (1:100) in the same medium and allowed to grow in the same conditions until the OD600 was 0.5. Then, LiTryR expression was induced by addition of 1 mM isopropyl-β-D-1-thiogalactopyranoside (IPTG) for 16 h at 26 °C. The cells were centrifuged for 5 min at 9000g and 4 °C and the wet pellet resuspended in lysis buffer (50 mM Tris, pH 7, 300 mM NaCl, 25 mM imidazole, protease inhibitor cocktail, and 1 mg/mL lysozyme). […] The supernatant was sonicated again as previously described for 10 min and loaded on a HisTrap column (GE Healthcare, Chicago, IL) for 16 h at 4 °C using a P-1 peristaltic pump (GE Healthcare, Chicago, IL). Once loaded, the HisTrap column was connected to an ÄKTA purifier UPC 10 (GE Healthcare, Chicago, IL) and washed using a 5–10% gradient between buffer A (50 mM Tris, pH 7 and 300 mM NaCl) and B (50 mM Tris, pH 7, 300 mM NaCl, and 500 mM imidazole). LiTryR was eluted using a 40% gradient between buffers A and B. Fractions containing recombinant LiTryR were pooled and loaded into a HiPrep 26/10 Desalting column (GE Healthcare, Chicago, IL) previously equilibrated with buffer A. Finally, LiTryR was concentrated to 2 mg/mL using an Amicon Ultra-15 50K (Merck Millipore, Burlington, MA) and an equal volume of glycerol was added before storing at −20 °C.
(§1) TryR oxidoreductase activity was determined spectrophotometrically using a modified version of the DTNB-coupled assay described by Hamilton et al.[52] Briefly, reactions were carried out at 26 °C in 250 μL of N-(2-hydroxyethyl)piperazine-N′-ethanesulfonic acid (HEPES) buffer (pH 7.5, 40 mM) containing ethylenediaminetetraacetic acid (EDTA) (1 mM), NADP^+ (30 μM), DTNB (25 μM), TS2 (1 μM), NADPH (150 μM), glycerol (0.02%), DMSO (1.75%), and recombinant TryR (7 nM). […] Reactions were started by addition of a mixture of NADPH and TS2.
(§2) TryR oxidoreductase activity was monitored at 26 °C by an increase in absorbance at 412 nm in an EnSpire Multimode Plate Reader (PerkinElmer, Waltham, MA). […] (TNB) concentration was obtained by multiplying the absorbance values by 100 (50 μM TNB generates 0.5 arbitrary units of absorbance at 412 nm). In this DTNB-coupled assay, one molecule of T(SH)2 reduces one molecule of DTNB, producing two TNB molecules. All of the assays were conducted in at least three independent experiments. Data were analyzed using a nonlinear regression model with GraFit 6 software (Erithacus, Horley, Surrey, U.K.).

LiTryR dimer = target: T2, LiTryR dimer (Leishmania infantum, UniProt A4HSF7); assay: biochemical; settings: 400 nM LiTryR, 16 h at 37 °C; read-out: IC50^dim, LiTryR monomer displacement (dimer quantitation ELISA)
T2 construct: made in house; host or cells: E. coli BL21 (DE3) Rossetta (co-transformed with both plasmids)
Procedure: The stability of the LiTryR dimeric form in the presence of 1,2,3-triazole-phenyl-thiazole-based compounds was evaluated using the novel enzyme-linked immunosorbent assay (ELISA) developed in our laboratory.[25] […] Next, the different solutions were centrifuged at 18 000g for 15 min at room temperature. The supernatants (200 μL/well) were added to the α-FLAG-coated plates (Sigma-Aldrich, St. Louis, MO) and incubated for 30 min at 37 °C with agitation in a humid atmosphere. The plates were washed five times with TTBS buffer (2 mM Tris, pH 7.6, 138 mM NaCl, and 0.1% Tween-20) and incubated with diluted monoclonal α-HIS horseradish peroxidase (HRP)-conjugated antibody (200 μL, 1:50 000, Abcam, Cambridge, U.K.) in fatty acid- and essentially globulin-free bovine serum albumin (BSA) (5%) prepared in TTBS buffer for 1 h at room temperature. The plates were washed five times, and o-phenylenediamine dihydrochloride (OPD) substrate prepared according to the manufacturer’s instructions was added. The enzymatic reaction was stopped after 5 min with H2SO4 (100 μL, […]), and the absorbances were measured at 490 nm in an EnSpire Multimode Plate Reader (PerkinElmer, Waltham, MA). All of the assays were conducted in triplicate in at least three independent experiments. Data were analyzed using a nonlinear regression model with GraFit 6 software (Erithacus, Horley, Surrey, U.K.).

TbTryR = target: T3, TbTryR (Trypanosoma brucei brucei, UniProt P39051); assay: TryR oxidoreductase activity, DTNB-coupled assay (TbTryR); assay type: biochemical; settings: read-out: IC50, oxidoreductase activity of TbTryR
T3 construct: HIS; made in house; host or cells: E. coli
Excerpt: (§3) The DNA coding sequences for Homo sapiens GR, T. brucei TryR, and T. congolense TryR were polymerase chain reaction (PCR)-amplified and cloned in the pRSETA plasmid. The DNA coding for hGR (transcript variant 1; NCBI Reference Sequence: NM_000637.5) was purchased from GeneScript. Genomic DNA from T. congolense parasites was kindly provided by Dr. Stefan Magez (University of Vrije, Brussels). Genomic DNA from the T. brucei S16 cell line was kindly provided by José M. Pérez-Victoria. Instituto de Parasitología y Biomedicina “López—Neyra” CSIC. HIS-tagged recombinant T. brucei and T. congolense TryRs (TbTryR and TcoTryR, respectively) were purified from E. coli as already explained for LiTryR.
as §1, §2

[1] = system: L. infantum axenic amastigotes; assay: Leishmanicidal activity on axenic amastigotes (PI exclusion, flow cytometry); assay type: cell-based, Leishmania infantum; settings: Leishmania infantum; axenic amastigotes, 24 h at 37 °C; read-out: EC50 amastigotes
Procedure: (§4) L. infantum promastigotes (MCAN/ES/89/IPZ229/1/89) were grown in Roswell Park Memorial Institute (RPMI)-1640 medium (Sigma-Aldrich, St. Louis, MO) supplemented with 10% heat-inactivated fetal calf serum (FCS), antibiotics, and 25 mM HEPES (pH 7.2) at 26 °C. L. infantum axenic amastigotes (MCAN/ES/89/IPZ229/1/89) were grown in M199 medium (Invitrogen, Leiden, The Netherlands) supplemented with 10% heat-inactivated FCS, 1 g/L β-alanine, 100 mg/L L-asparagine, 200 mg/L sucrose, 50 mg/L sodium pyruvate, 320 mg/L malic acid, 40 mg/L fumaric acid, 70 mg/L succinic acid, 200 mg/L α-ketoglutaric acid, 300 mg/L citric acid, 1.1 g/L sodium bicarbonate, 5 g/L morpholineethanesulfonic acid (MES), 0.4 mg/L hemin, and 10 mg/L gentamicine, pH 5.4, at 37 °C.
Axenization was performed by diluting 0.5 mL of a 7-day stationary phase culture of L. infantum promastigotes (2–3 × 10^7 parasites/mL) in 4.5 mL of amastigotes medium and incubating the culture at 37 °C for 2 or 3 days. L. infantum axenic amastigotes apparition was followed by phase-contrast microscopy using an Eclipse Ti inverted microscope (Nikon, Tokyo, Japan).
(§5) Drug treatment of L. infantum promastigotes was performed during the logarithmic growth phase at a concentration of 2 × 10^6 parasites/mL at 26 °C for 24 h. […] EC50 was evaluated by flow cytometry by the propidium iodide (PI) exclusion method. After selection of the parasite population based on their forward scatter (FSC) and side scatter (SSC) values, live and dead parasite cells were identified by their permeability to PI. All of the assays were conducted in triplicate in at least three independent experiments. Data were analyzed using a nonlinear regression model with GraFit 6 software (Erithacus, Horley, Surrey, U.K.).

HepG2 cells = assay: Cellular toxicity, crystal violet assay; assay type: cell-based; settings: Homo sapiens, HepG2; 24 h, crystal violet method; read-out: EC50 HepG2
Procedure: Liver hepatocellular carcinoma HepG2 cells were grown in Dulbecco’s modified Eagle’s medium (DMEM) (Sigma-Aldrich, St. Louis, MO) with 10% heat-inactivated FCS, antibiotics, and 10 mM HEPES.
Drug treatment of liver hepatocellular carcinoma HepG2 cells was performed at a concentration of 10^5 cells/mL at 37 °C and 5% CO2 for 24 h. EC50 was evaluated by the crystal violet assay. Briefly, cells were washed with phosphate-buffered saline (PBS) and stained with 200 μL of crystal violet solution (0.2% crystal violet, 2% ethanol) for 10 min at room temperature. Next, the plates were washed twice with tap water and allowed to dry. The stained cells were solubilized with 400 μL of 1% sodium dodecyl sulfate (SDS), and the color intensity was quantified at 570 nm using an EnSpire Multimode Plate Reader (PerkinElmer, Waltham, MA). All of the assays were conducted in triplicate in at least three independent experiments. Data were analyzed using a nonlinear regression model with GraFit 6 software (Erithacus, Horley, Surrey, U.K.).

[2] = system: L. infantum intracellular amastigotes; assay: Leishmanicidal activity in amastigote-infected THP-1 monocyte-derived macrophages; assay type: cell-based, Leishmania infantum; settings: Leishmania infantum, THP-1, 72 h, read-out: EC50 intracellular amastigotes, amastigote-infected THP-1 macrophages, 72 h
Procedure: (§6) THP-1 monocytes were seeded in a 48-well plate at a concentration of 5 × 10^5 cells/mL (250 μL/well) in RPMI complete medium supplemented with phorbol 12-myristate 13-acetate (PMA) (100 ng/mL). Differentiation of THP-1 monocytes to macrophages was allowed for 24 h at 37 °C and 5% CO2. THP-1-derived macrophages were infected with GFP-expressing axenic amastigotes at 5 × 10^6 parasites/mL in RPMI complete medium for 24 h (250 μL/well). Extracellular amastigotes were washed twice with PBS. The remaining extracellular parasites were challenged for 24 h with THP-1 medium supplemented with 10% horse serum (Gibco) instead of FCS. Cells were washed twice with PBS, and treatments were performed in 250 μL of fresh RPMI medium supplemented with 10% horse serum for 72 h at 37 °C and 5% CO2. Afterward, treatments were removed by two PBS washes. Lysis of infected cells was performed with 120 μL of SDS 0.005% (w/v) in PBS. After a 30 min incubation at 37 °C, lysis was stopped by adding RPMI complete medium with PI at 20 μg/mL (120 μL/well). The lysates were transferred to a 96-well plate (200 μL/well), and the GFP^+ amastigotes extracted from the infected cells were acquired by a Beckman Coulter FC500 flow cytometer. Each sample (100 μL) was acquired for 20 s.
The relative number of GFP^+ intracellular amastigotes per cell in each sample was estimated after the division of the total number of GFP+ amastigotes by the LDH activity value of the sample. Results were normalized to the vehicle-treated controls. EC50 values of intracellular amastigotes were calculated using a nonlinear regression model with GraFit 6 software (Erithacus, Horley, Surrey, U.K.). All of the assays were conducted in at least three independent experiments.

[3] = system: THP-1 monocyte-derived macrophages; assay: Cytotoxicity in THP-1 monocyte-derived macrophages (LDH activity); assay type: cell-based, human; settings: Homo sapiens, THP-1; LDH activity
Procedure: THP-1 cells were grown in RPMI-1640 medium (Gibco, Leiden, The Netherlands) supplemented with 10% heat-inactivated FCS, antibiotics, 10 mM HEPES, 2 mM glutamine, and 1 mM sodium pyruvate, pH 7.2, at 37 °C and 5% CO2.
as §6
Cytotoxicity of THP-1 infected macrophages was determined using an in-house developed lactate dehydrogenase (LDH) activity assay. LDH activity assays from the remaining cell lysates (100 μL/well) were carried out at 37 °C in 250 μL of Tris/HCl buffer (pH 8.9, 50 mM) containing DL-lactate (840 mM), NAD^+ (450 μM), 1-methoxyphenazine methosulfate (45 μM), and nitro blue tetrazolium chloride (40 μM). The color intensity of the generated formazan dye was monitored at 570 nm using an EnSpire Multimode Plate Reader (PerkinElmer, Waltham, MA). CC50 values were calculated using a nonlinear regression model with GraFit 6 software (Erithacus, Horley, Surrey, U.K.).

[4] = system: L. infantum promastigotes; assay: Leishmanicidal activity on promastigotes (PI exclusion, flow cytometry); assay type: cell-based, Leishmania infantum; settings: Leishmania infantum; 24 h at 26 °C; read-out: EC50 promastigotes
Procedure: as §4, §5

TcoTryR = target: T4, TcoTryR (Trypanosoma congolense, UniProt P13110); assay: TryR oxidoreductase activity, DTNB-coupled assay (TcoTryR); assay type: biochemical
T4 construct: HIS; made in house; host or cells: E. coli
Excerpt: as §3, §1, §2

T4 sequence (P13110 whole entry): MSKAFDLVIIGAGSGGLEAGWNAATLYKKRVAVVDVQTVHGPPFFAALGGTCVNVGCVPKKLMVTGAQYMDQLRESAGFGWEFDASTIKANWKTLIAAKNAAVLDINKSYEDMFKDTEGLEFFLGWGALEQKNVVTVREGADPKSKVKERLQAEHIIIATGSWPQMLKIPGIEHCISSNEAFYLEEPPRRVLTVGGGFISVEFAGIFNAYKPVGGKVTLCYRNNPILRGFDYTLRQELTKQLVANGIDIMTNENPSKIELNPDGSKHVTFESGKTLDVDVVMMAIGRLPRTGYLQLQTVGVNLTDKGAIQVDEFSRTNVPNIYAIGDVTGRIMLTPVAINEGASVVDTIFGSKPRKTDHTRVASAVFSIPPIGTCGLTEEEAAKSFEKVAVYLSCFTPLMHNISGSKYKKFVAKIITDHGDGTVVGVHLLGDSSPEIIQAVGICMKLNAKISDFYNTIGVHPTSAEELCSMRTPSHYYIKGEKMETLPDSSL
T3 sequence (P39051 whole entry): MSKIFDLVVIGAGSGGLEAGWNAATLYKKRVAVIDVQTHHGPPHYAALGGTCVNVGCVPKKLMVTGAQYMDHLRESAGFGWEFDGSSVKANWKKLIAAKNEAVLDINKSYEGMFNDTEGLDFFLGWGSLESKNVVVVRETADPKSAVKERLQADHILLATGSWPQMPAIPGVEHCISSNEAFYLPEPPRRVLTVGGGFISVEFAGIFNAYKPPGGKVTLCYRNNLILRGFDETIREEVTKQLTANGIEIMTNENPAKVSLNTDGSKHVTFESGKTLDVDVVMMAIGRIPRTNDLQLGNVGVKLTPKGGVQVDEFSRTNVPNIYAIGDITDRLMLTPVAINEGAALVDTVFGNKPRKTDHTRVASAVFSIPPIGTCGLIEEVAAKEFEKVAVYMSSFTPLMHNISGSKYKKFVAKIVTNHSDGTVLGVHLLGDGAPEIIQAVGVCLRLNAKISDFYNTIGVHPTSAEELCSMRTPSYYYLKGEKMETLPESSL
T1 sequence (A4HSF7 1-491): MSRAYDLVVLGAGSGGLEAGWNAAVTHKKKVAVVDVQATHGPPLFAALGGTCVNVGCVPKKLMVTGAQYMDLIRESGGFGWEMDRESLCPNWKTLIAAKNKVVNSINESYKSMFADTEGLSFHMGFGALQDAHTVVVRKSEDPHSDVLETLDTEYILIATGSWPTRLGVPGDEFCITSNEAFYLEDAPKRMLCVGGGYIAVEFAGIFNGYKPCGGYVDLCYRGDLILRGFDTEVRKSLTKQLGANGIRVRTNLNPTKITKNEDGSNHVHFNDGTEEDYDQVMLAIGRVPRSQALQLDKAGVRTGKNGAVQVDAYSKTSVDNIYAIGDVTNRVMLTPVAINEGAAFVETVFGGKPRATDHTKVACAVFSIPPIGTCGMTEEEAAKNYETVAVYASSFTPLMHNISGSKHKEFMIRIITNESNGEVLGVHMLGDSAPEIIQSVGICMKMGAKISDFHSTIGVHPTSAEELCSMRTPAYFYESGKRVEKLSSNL
T2 sequence (A4HSF7 1-491): as above

Row | SMILES | IC50 (LiTryR) | melting point | IC50 (LiTryR dimer) | IC50 (TbTryR) | EC50 [1] | EC50 (HepG2 cells) | EC50 [2] | EC50 [3] | EC50 [4] | IC50 (TcoTryR)
1 | O=C(O)CCCc1cn(-c2ccc(-c3nc(CCc4ccccc4)cs3)c(OCCN3CCNC3=O)c2)nn1 [12g] | > 75 µM | 174.5 to 177.5 °C | > 75 µM |  |  |  |  |  |  | 
2 | NCCCCc1cn(-c2ccc(-c3nc(CCc4ccccc4)cs3)c(OCCN3CCNC3=O)c2)nn1 [12a, 1-(2-(5-(4-(4-Ammoniumbutyl)-1H-1,2,3-triazol-1-yl)-2-(4-phenethylthiazol-2-yl)phenoxy)ethyl)imidazolidin-2-one 2,2,2-Trifluoroacetate] |  |  |  | 13.3 ± 1.9 µM | 13.9 ± 0.6 µM | 20.3 ± 2.4 µM | 32.4 ± 6.7 µM | 45 ± 3.1 µM | 16.4 ± 0.9 µM | 11 ± 1.3 µM
